Laboratory results as given in ChEMBL document CHEMBL1275533, “In vitro antibacterial activity of vertilmicin and its susceptibility to modifications by the recombinant AAC6'-APH2'' enzyme” (2008).
In brackets after ≈: the same amount, converted by molar mass. Activity calls are given as the source filed them. No cut-off for these calls is given here.

Assays:
Enterobacter cloacae [1] = assay: Antibacterial activity against non-gentamicin-resistant Enterobacter cloacae clinical isolate after 18 hrs by agar dilution method; type: functional
Pseudomonas aeruginosa [2] = assay: Antibacterial activity against non-gentamicin-resistant Pseudomonas aeruginosa clinical isolate assessed as susceptible isolates after 18 hrs by agar dilution method; type: functional
Citrobacter koseri = assay: Antibacterial activity against gentamicin-resistant Citrobacter diversus clinical isolate assessed as susceptible isolates after 18 hrs by agar dilution method; type: functional
Haemophilus influenzae [3] = assay: Antibacterial activity against non-gentamicin-resistant Haemophilus influenzae clinical isolate assessed as susceptible isolates after 18 hrs by agar dilution method; type: functional, organism-based
Pseudomonas sp. = assay: Antibacterial activity against non-gentamicin-resistant Pseudomonas spp. clinical isolate after 18 hrs by agar dilution method; type: functional
Klebsiella pneumoniae [4] = assay: Antibacterial activity against non-gentamicin-resistant Klebsiella pneumoniae clinical isolate after 18 hrs by agar dilution method; type: functional
Enterobacter cloacae [5] = assay: Antibacterial activity against gentamicin-resistant Enterobacter cloacae clinical isolate assessed as susceptible isolates after 18 hrs by agar dilution method; type: functional
Pseudomonas aeruginosa [6] = assay: Antibacterial activity against non-gentamicin-resistant Pseudomonas aeruginosa clinical isolate after 18 hrs by agar dilution method; type: functional
[7] = tested on: Acinetobacter calcoaceticus; assay: Antibacterial activity against non-gentamicin-resistant Acinetobacter calcoaceticus clinical isolate after 18 hrs by agar dilution method; type: functional
Staphylococcus aureus = assay: Antibacterial activity against non-gentamicin-resistant Staphylococcus aureus clinical isolate after 18 hrs by agar dilution method; type: functional
Klebsiella aerogenes [8] = assay: Antibacterial activity against non-gentamicin-resistant Enterobacter aerogenes clinical isolate assessed as susceptible isolates after 18 hrs by agar dilution method; type: functional
Morganella morganii = assay: Antibacterial activity against non-gentamicin-resistant Morganella morganii clinical isolate assessed as susceptible isolates after 18 hrs by agar dilution method; type: functional
[9] = tested on: Escherichia coli BL21(DE3); assay: Ratio of Vmax to Km for AAC(6')-APH(2'') in Escherichia coli BL21(DE3) assessed as oxidation of NADH by pyruvate kinase relative to netilmicin
Klebsiella aerogenes [10] = assay: Antibacterial activity against non-gentamicin-resistant Enterobacter aerogenes clinical isolate after 18 hrs by agar dilution method; type: functional
Proteus mirabilis = assay: Antibacterial activity against non-gentamicin-resistant Proteus mirabilis clinical isolate assessed as susceptible isolates after 18 hrs by agar dilution method; type: functional
Klebsiella pneumoniae [11] = assay: Antibacterial activity against gentamicin-resistant Klebsiella pneumoniae clinical isolate after 18 hrs by agar dilution method; type: functional
Pseudomonas aeruginosa [12] = assay: Antibacterial activity against gentamicin-resistant Pseudomonas aeruginosa clinical isolate after 18 hrs by agar dilution method; type: functional
[13] = tested on: Escherichia coli BL21(DE3); assay: Acetylation activity of AAC(6')-APH(2'') in Escherichia coli BL21(DE3) assessed as production of free pyridine-4-thiolate
Providencia rettgeri = assay: Antibacterial activity against non-gentamicin-resistant Proteus rettgeri clinical isolate after 18 hrs by agar dilution method; type: functional
[14] = tested on: Escherichia coli BL21(DE3); assay: Phosphorylation activity of AAC(6')-APH(2'') in Escherichia coli BL21(DE3) assessed as oxidation of NADH by pyruvate kinase relative to verdamicin
Haemophilus influenzae [15] = assay: Antibacterial activity against non-gentamicin-resistant Haemophilus influenzae clinical isolate after 18 hrs by agar dilution method; type: functional
Enterobacter cloacae [16] = assay: Antibacterial activity against non-gentamicin-resistant Enterobacter cloacae clinical isolate assessed as susceptible isolates after 18 hrs by agar dilution method; type: functional
Enterococcus faecalis = assay: Antibacterial activity against gentamicin-resistant Enterococcus faecalis clinical isolate after 18 hrs by agar dilution method; type: functional
[17] = tested on: Escherichia coli BL21(DE3); assay: Acetylation activity of AAC(6')-APH(2'') in Escherichia coli BL21(DE3) assessed as production of free pyridine-4-thiolate relative to netilmicin
[18] = tested on: Escherichia coli BL21(DE3); assay: Ratio of Vmax to Km for AAC(6')-APH(2'') in Escherichia coli BL21(DE3) assessed as production of free pyridine-4-thiolate relative to netilmicin

SMILES | MIC50 (Enterobacter cloacae [1]) [µg/mL] | MIC90 (Enterobacter cloacae [1]) [µg/mL] | Activity (Pseudomonas aeruginosa [2]) [%] | Activity (Citrobacter koseri) [%] | Activity (Haemophilus influenzae [3]) | MIC50 (Pseudomonas sp.) [µg/mL] | MIC90 (Pseudomonas sp.) [µg/mL] | MIC50 (Klebsiella pneumoniae [4]) [µg/mL] | MIC90 (Klebsiella pneumoniae [4]) [µg/mL] | Activity (Enterobacter cloacae [5]) [%] | MIC50 (Pseudomonas aeruginosa [6]) [µg/mL] | MIC90 (Pseudomonas aeruginosa [6]) [µg/mL] | MIC50 [7] [µg/mL] | MIC90 [7] [µg/mL] | MIC50 (Staphylococcus aureus) [µg/mL] | MIC90 (Staphylococcus aureus) [µg/mL] | Activity (Klebsiella aerogenes [8]) [%] | Activity (Morganella morganii) [%] | MIC50 (Klebsiella aerogenes [10]) [µg/mL] | MIC90 (Klebsiella aerogenes [10]) [µg/mL] | other results
CCN[C@@H]1C[C@H](N)[C@@H](O[C@H]2OC(CN)=CC[C@H]2N)[C@H](O)[C@H]1O[C@H]1OC[C@](C)(O)[C@H](NC)[C@H]1O [NETILMICIN] | 0.5 (≈ 1.05 µM) | 2 (≈ 4.21 µM) | 63.9 | 7.1 | inactive | 8 (≈ 16.8 µM) | 32 (≈ 67.3 µM) | 0.5 (≈ 1.05 µM) | 0.5 (≈ 1.05 µM) | 5.3 | 8 (≈ 16.8 µM) | 32 (≈ 67.3 µM) | 1 (≈ 2.1 µM) | 16 (≈ 33.6 µM) | 0.25 (≈ 0.526 µM) | 16 (≈ 33.6 µM) | 98.1 | 100 | 0.5 (≈ 1.05 µM) | 1 (≈ 2.1 µM) | Vmax/Km [9]: 7.4%; Activity (Proteus mirabilis): 98.4%; MIC50 (Klebsiella pneumoniae [11]): 32 µg/mL (≈ 67.3 µM); MIC90 (Klebsiella pneumoniae [11]): > 128 µg/mL; MIC50 (Pseudomonas aeruginosa [12]): > 128 µg/mL; MIC90 (Pseudomonas aeruginosa [12]): > 128 µg/mL; Km [13]: 304 µM; MIC50 (Providencia rettgeri): 2 µg/mL (≈ 4.21 µM); MIC90 (Providencia rettgeri): 8 µg/mL (≈ 16.8 µM); Vmax [14]: 55%; MIC50 (Haemophilus influenzae [15]): 1 µg/mL (≈ 2.1 µM); MIC90 (Haemophilus influenzae [15]): 2 µg/mL (≈ 4.21 µM); Activity (Enterobacter cloacae [16]): 98.2%; MIC50 (Enterococcus faecalis): 4 µg/mL (≈ 8.41 µM); MIC90 (Enterococcus faecalis): > 128 µg/mL
NCC[C@H](O)C(=O)N[C@@H]1C[C@H](N)[C@@H](O[C@H]2O[C@H](CN)[C@@H](O)[C@H](O)[C@H]2O)[C@H](O)[C@H]1O[C@H]1O[C@H](CO)[C@@H](O)[C@H](N)[C@H]1O [AMIKACIN] | 2 (≈ 3.42 µM) | 4 (≈ 6.83 µM) | 100 | 35.7 | inactive | 4 (≈ 6.83 µM) | 16 (≈ 27.3 µM) | 1 (≈ 1.71 µM) | 1 (≈ 1.71 µM) | 63.2 | 4 (≈ 6.83 µM) | 16 (≈ 27.3 µM) | 0.5 (≈ 0.854 µM) | 2 (≈ 3.42 µM) | 1 (≈ 1.71 µM) | 2 (≈ 3.42 µM) | 100 | 96 | 1 (≈ 1.71 µM) | 2 (≈ 3.42 µM) | Activity (Proteus mirabilis): 100%; MIC50 (Klebsiella pneumoniae [11]): 1 µg/mL (≈ 1.71 µM); MIC90 (Klebsiella pneumoniae [11]): > 128 µg/mL; MIC50 (Pseudomonas aeruginosa [12]): 8 µg/mL (≈ 13.7 µM); MIC90 (Pseudomonas aeruginosa [12]): 32 µg/mL (≈ 54.6 µM); MIC50 (Providencia rettgeri): 2 µg/mL (≈ 3.42 µM); MIC90 (Providencia rettgeri): 32 µg/mL (≈ 54.6 µM); MIC50 (Haemophilus influenzae [15]): 8 µg/mL (≈ 13.7 µM); MIC90 (Haemophilus influenzae [15]): 16 µg/mL (≈ 27.3 µM); Activity (Enterobacter cloacae [16]): 96.4%; MIC50 (Enterococcus faecalis): 128 µg/mL (≈ 219 µM); MIC90 (Enterococcus faecalis): > 128 µg/mL
CN[C@@H]1[C@@H](O)[C@@H](O[C@@H]2[C@@H](O)[C@H](O[C@@H]3OC(C(C)N)=CC[C@@H]3N)[C@@H](N)C[C@H]2N)OC[C@]1(C)O (stereo partly drawn) [VERDAMICIN] | 0.25 (≈ 0.542 µM) | 0.5 (≈ 1.08 µM) | 86.9 | 0 | inactive | 2 (≈ 4.33 µM) | 8 (≈ 17.3 µM) | 0.25 (≈ 0.542 µM) | 0.5 (≈ 1.08 µM) | 5.3 | 8 (≈ 17.3 µM) | 16 (≈ 34.7 µM) | 0.5 (≈ 1.08 µM) | 2 (≈ 4.33 µM) | 0.125 (≈ 0.271 µM) | 8 (≈ 17.3 µM) | 98.1 | 100 | 0.5 (≈ 1.08 µM) | 1 (≈ 2.17 µM) | MIC (Enterobacter cloacae [1]): 0.25 µg/mL (≈ 0.542 µM); Vmax [17]: 9.6%; Vmax/Km [18]: 4.5%; Activity (Proteus mirabilis): 100%; MIC50 (Klebsiella pneumoniae [11]): 128 µg/mL (≈ 277 µM); MIC90 (Klebsiella pneumoniae [11]): > 128 µg/mL; MIC50 (Pseudomonas aeruginosa [12]): > 128 µg/mL; MIC90 (Pseudomonas aeruginosa [12]): > 128 µg/mL; Km [13]: 656 µM; MIC50 (Providencia rettgeri): 2 µg/mL (≈ 4.33 µM); MIC90 (Providencia rettgeri): 8 µg/mL (≈ 17.3 µM); MIC50 (Haemophilus influenzae [15]): 1 µg/mL (≈ 2.17 µM); MIC90 (Haemophilus influenzae [15]): 1 µg/mL (≈ 2.17 µM); Activity (Enterobacter cloacae [16]): 98.2%; MIC50 (Enterococcus faecalis): 128 µg/mL (≈ 277 µM); MIC90 (Enterococcus faecalis): > 128 µg/mL
